The values that follow come from patent US7220784B2, “Substituted stilbenes and their reactions” (priority 2000, dated 2007).

The test system of assay [1] is tubulin. Description: CD IC50 (Tables 12-26, abbreviation not defined). Type of assay: binding.
For assay [2], the system named is tubulin. Description: MA IC50 (Tables 12-26, abbreviation not defined). It counts as biochemical.
In assay [3] the test system is L1210 murine leukaemia cell line. Nature of the assay: MTT, L1210. Type of assay: cell-based. The settings on record: Mus musculus; L1210 murine leukaemia cell line (footnote a).

Usually IC50 stands for the concentration that inhibits the measured activity by half. Low values mean inhibition by little substance, high ones a need for much substance.

For the molecule `COc1ccc(/C=C\c2cc(O)c(OC)c(OC)c2)cc1O` [Compound 18, reference compound], the IC50 in assay [1] was 22 µM; in assay [2], 4 to 5 µM; in assay [3] it was 0.04 µM.
